Earlier results in patent US9498424B2, “Active mixtures of acylated oligopeptides and troxerutin” (Symrise AG, priority 2013, dated 2016).

Tested on: mice

C[C@@H]1O[C@@H](OC[C@H]2O[C@@H](Oc3c(-c4ccc(OCCO)c(OCCO)c4)oc4cc(OCCO)cc(O)c4c3=O)[C@H](O)[C@@H](O)[C@@H]2O)[C@H](O)[C@H](O)[C@H]1O [Troxerutin]
CNS insulin resistance: reverse CNS insulin resistance | reactive oxygen species induced by a high-cholesterol diet: reduce reactive oxygen species
